Patent publication US9896412B2, “Reagents and method for conjugating biological molecules” (POLYTHERICS LIMITED, priority 2008, dated 2018)

Description: A pH 7.4 D2O solution was made by first freeze-drying a 50 mM sodium phosphate aqueous solution containing 150 mM NaCl and 20 mM EDTA at pH 7.4 and reconstituting to the same volume with deuterium oxide. Acetone was added as a standard to the buffer at 1.0 μl per 3 ml. Samples of the PEG reagents were dissolved at 1 μmol in 0.75 ml of the buffer and analysed after 4 h and after 25.5 h by 400 MHz NMR spectroscopy. The stability of the PEG maleimide samples was determined by comparing the integral at 6.86 ppm after normalising using the integral for the acetone standard at 2.17 ppm.

Substance: α-methoxy-ω-ethyl-maleinimide polyethylene glycol [PEG maleimide sample 2]
- % Degradation over 21.5 h at pH 7.4: 19%
